Measured values taken from patent EP4603105A1, “PHARMACEUTICAL COMPOSITION CONTAINING CYCLIC COMPOUND HAVING SELECTIVE KRAS INHIBITORY EFFECT AGAINST HRAS AND NRAS” (CHUGAI SEIYAKU KABUSHIKI KAISHA, priority 2022, dated 2024).
Where two headings read alike, the source gives them in different places.

Key:
[1] = biological target: GDP-bound KRAS wild-type protein (Homo sapiens, UniProt P01116); test: Binding to KRAS by surface plasmon resonance (SPR), dissociation constant KD
Procedure, shortened: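 Single-cycle kinetics on GDP-loaded biotin-Avi RAS captured to ~100–300 RU; 75 s ascending injections, 100 µL/min, 30°C. HBS pH 7.4 + 10 mM MgCl2/10 µM GDP/4% DMSO. 1:1 fit, KD.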

[2] = biological target: GDP-bound NRAS wild-type protein (Homo sapiens, UniProt P01111); test: Binding to NRAS by surface plasmon resonance (SPR), KD and KD ratio to KRAS
Chain of GDP-bound NRAS wild-type protein (P01111 whole entry): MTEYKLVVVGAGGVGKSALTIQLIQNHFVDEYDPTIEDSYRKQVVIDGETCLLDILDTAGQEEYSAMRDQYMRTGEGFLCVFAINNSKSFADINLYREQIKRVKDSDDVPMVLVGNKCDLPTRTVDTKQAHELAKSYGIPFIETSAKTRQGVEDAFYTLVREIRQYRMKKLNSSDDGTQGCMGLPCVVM
Procedure, shortened: (§1)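 Affinity is measured by surface plasmon resonance at 30°C against captured, GDP-loaded RAS carrying a biotinylated Avi tag. Compounds are titrated by single-cycle kinetics, and KD comes from a 1:1 fit.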

[3] = tested on: human lung cancer strain NCI-H441; test: NCI-H441 cell proliferation inhibitory activity (CellTiter-Glo, 4 days); type: cell-based; conditions: read-out: NCl-H441 IC50
Procedure, shortened: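 Readout: […] after the ATP-based reagent. Compound: serial dilutions in dimethyl sulfoxide.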

HRAS wild-type protein = HRAS wild-type protein (Homo sapiens, UniProt P01112); test: Binding to HRAS by surface plasmon resonance (SPR), KD and KD ratio to KRAS
Chain of HRAS wild-type protein (P01112 whole entry): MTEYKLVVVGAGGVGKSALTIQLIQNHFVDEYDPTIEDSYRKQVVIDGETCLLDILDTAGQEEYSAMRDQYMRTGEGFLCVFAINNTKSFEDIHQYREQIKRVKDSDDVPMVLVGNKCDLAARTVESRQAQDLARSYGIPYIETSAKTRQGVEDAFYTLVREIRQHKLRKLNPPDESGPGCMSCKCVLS
Procedure, shortened: as §1

[4] = ratio of KD for GDP-bound NRAS wild-type protein to KD for KRAS
[5] = ratio of KD for HRAS wild-type protein to KD for KRAS
[6] = Single Cycle Kinetics, 1:1 binding model
[7] = ratio of KD with respect to GDP-bound NRAS wild-type protein to KD with respect to KRAS
[8] = 50% proliferation inhibitory concentration, four days
[9] = ratio of KD with respect to HRAS wild-type protein to KD with respect to KRAS

Chain of GDP-bound KRAS wild-type protein (P01116 1-188 isoform P01116-2): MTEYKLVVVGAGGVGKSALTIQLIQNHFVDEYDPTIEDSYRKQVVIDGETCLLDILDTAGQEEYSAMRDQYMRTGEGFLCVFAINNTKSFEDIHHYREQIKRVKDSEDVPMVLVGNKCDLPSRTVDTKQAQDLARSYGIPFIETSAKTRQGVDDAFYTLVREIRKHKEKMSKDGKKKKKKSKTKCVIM

| SMILES | Kd ([1]; 1:1 binding model) [nM] | NRAS /KRAS [2, 4] | IC50 ([3]; NCI-H441 cells, 4 days) [nM] | HRAS /KRAS (HRAS wild-type protein; [5]) | Kd [1, 6] [nM] | NRAS /KRAS [2, 7] | IC50 [3, 8] [nM] | HRAS /KRAS (HRAS wild-type protein; [9]) | Kd ([1]; Single Cycle Kinetics) [nM] |
| --- | --- | --- | --- | --- | --- | --- | --- | --- | --- |
| CCC(CC)[C@H]1C(=O)N(C)[C@H](C(=O)N(C)C)CC(=O)N(C)[C@@H](COC)C(=O)N[C@@H]([C@@H](C)CC)C(=O)N(C)CC(=O)N(C)[C@H]2C/C=C\CCN(C2=O)[C@@H](Cc2ccc(C(F)F)cc2)C(=O)N(C)CC(=O)N[C@@H](CCc2ccc(Cl)c(Cl)c2)C(=O)N2C[C@H](OC3CCCC3)C[C@H]2C(=O)NC2(CC(C)(C)C2)C(=O)N1C [PP2649] | 0.4 | AA (a compound having 20 or more is denoted as AA) | 61 | A (a compound having 10 or more and less than 20 is denoted as A) |  |  |  |  |  |
| CCO[C@@H]1C[C@H]2C(=O)NC3(CCC3)C(=O)N(C)[C@@H](C3CCCC3)C(=O)N(C)[C@H](C(=O)N(C)C)CC(=O)N(C)[C@@H](CC(F)F)C(=O)N[C@@H]([C@@H](C)CC)C(=O)N(C)CC(=O)N(C)[C@H]3CCCCCN(C3=O)[C@@H](Cc3ccc(F)cc3)C(=O)N(C)CC(=O)N[C@@H](CCc3cc(F)c(C(F)(F)F)c(F)c3)C(=O)N2C1 [PP1191] |  |  |  |  | 0.056 | A (a compound having 10 or more and less than 20 is denoted as A) | 13 | B (a compound having 3 or more and less than 10 is denoted as B) |  |
| CCO[C@@H]1C[C@H]2C(=O)NC3(CC(C)(C)C3)C(=O)N(C)[C@@H](C3CCCC3)C(=O)N(C)[C@H](C(=O)N(C)C)CC(=O)N(C)[C@@H]([C@H](C)OC)C(=O)N[C@@H]([C@@H](C)CC)C(=O)N(C)CC(=O)N(C)[C@H]3C/C=C\CCN(C3=O)[C@@H](Cc3ccc(C(F)(F)F)cc3)C(=O)N(C)CC(=O)N[C@@H](CCc3ccc(C(F)(F)F)c(Cl)c3)C(=O)N2C1 [PP3171] |  | A (a compound having 10 or more and less than 20 is denoted as A) | 15.9 | A (a compound having 10 or more and less than 20 is denoted as A) |  |  |  |  | 0.076 |
| CCC[C@H]1C(=O)N[C@@H]([C@@H](C)CC)C(=O)N(C2CC2)CC(=O)N(C)[C@H]2C/C=C\CCN(C2=O)[C@@H](Cc2ccc(C)cc2)C(=O)N(C)CC(=O)N[C@@H](CCc2cc(F)c(C(F)(F)F)c(F)c2)C(=O)N2C[C@H](OCC)C[C@H]2C(=O)NC2(CC(C)(C)C2)C(=O)N(C)[C@@H](C(CC)CC)C(=O)N(C)[C@H](C(=O)N(C)C)CC(=O)N1C [PP2560] | 1 | AA (a compound having 20 or more is denoted as AA) | 46.3 | A (a compound having 10 or more and less than 20 is denoted as A) |  |  |  |  |  |
| CCO[C@H](C)[C@@H]1NC(=O)[C@H](CC(C)C)N(C)C(=O)C[C@@H](C(=O)N(C)CC)N(C)C(=O)[C@H](C2CCCC2)N(C)C(=O)C2(CC(C)(C)C2)NC(=O)[C@@H]2C[C@H](C)CN2C(=O)[C@H](CCc2cc(F)c(C(F)(F)F)c(F)c2)NC(=O)CN(C)C(=O)[C@H](Cc2ccc(C)cc2)N2CC/C=C\C[C@@H](C2=O)N(C)C(=O)CN(C)C1=O [PP2414] | 0.33 | A (a compound having 10 or more and less than 20 is denoted as A) | 9.8 | A (a compound having 10 or more and less than 20 is denoted as A) |  |  |  |  |  |
| CCCOC[C@H]1C(=O)N[C@@H]([C@@H](C)OCC)C(=O)N2CCC[C@H]2C(=O)N(C)[C@H]2C/C=C\CCN(C2=O)[C@@H](Cc2ccc(C)cc2)C(=O)N(C)CC(=O)N[C@@H](CCc2cc(F)c(C(F)(F)F)c(F)c2)C(=O)N2C[C@H](OCC)C[C@H]2C(=O)NC2(CC(C)(C)C2)C(=O)N(C)[C@@H](C2CCCC2)C(=O)N(C)[C@H](C(=O)N(C)CC)CC(=O)N1C [PP2432] | 1.4 | A (a compound having 10 or more and less than 20 is denoted as A) | 138 | A (a compound having 10 or more and less than 20 is denoted as A) |  |  |  |  |  |
| CCC[C@H]1C(=O)N[C@@H](C2CCCC2)C(=O)N(C)CC(=O)N(C)[C@H]2C/C=C\CCN(C2=O)[C@@H](Cc2ccc(C)cc2)C(=O)N(C)CC(=O)N[C@@H](CCc2ccc(C(F)(F)F)c(Cl)c2)C(=O)N2CC3(CC3)C[C@H]2C(=O)N(C)C2(CCC2)C(=O)N(C)[C@@H](C2CCCC2)C(=O)N(C)[C@H](C(=O)N(C)C)CC(=O)N1C [PP3322] |  | A (a compound having 10 or more and less than 20 is denoted as A) | 7.9 | B (a compound having 3 or more and less than 10 is denoted as B) |  |  |  |  | 0.063 |
| CCC[C@H]1C(=O)N[C@@H](C23CC(C2)C3)C(=O)N2CCC[C@H]2C(=O)N(C)[C@H]2C/C=C\CCN(C2=O)[C@@H](Cc2ccc(C)cc2)C(=O)N(C)CC(=O)N[C@@H](CCc2ccc(C(F)(F)F)c(OC)c2)C(=O)N2C[C@H](OCC)C[C@H]2C(=O)N(C)C2(CCC2)C(=O)N(C)[C@@H](C2CCCC2)C(=O)N(C)[C@H](C(=O)N(C)C)CC(=O)N1C [PP3342] |  | A (a compound having 10 or more and less than 20 is denoted as A) | 22.8 | A (a compound having 10 or more and less than 20 is denoted as A) |  |  |  |  | 1.8 |
| C=CC[C@H]1C(=O)N(C)[C@H](C(=O)N(C)C)CC(=O)N(C)[C@@H](CC(C)C)C(=O)N[C@@H]([C@@H](C)CC)C(=O)N(C)CC(=O)N(C)[C@H]2C/C=C\CCN(C2=O)[C@@H](Cc2ccc(C)cc2)C(=O)N(C)CC(=O)N[C@@H](CCc2ccc(C(F)(F)F)c(OC)c2)C(=O)N2C[C@H](OCC)C[C@H]2C(=O)N(C)C2(CCC2)C(=O)N1C [PP3344] |  | A (a compound having 10 or more and less than 20 is denoted as A) | 54.9 | B (a compound having 3 or more and less than 10 is denoted as B) |  |  |  |  | 1.4 |
| CCCOC[C@H]1C(=O)N[C@@H]([C@@H](C)CC)C(=O)N(C)CC(=O)N(C)[C@H]2C/C=C\CCN(C2=O)[C@@H](CC2CCC(F)(F)CC2)C(=O)N(C)CC(=O)N[C@@H](CCc2cc(F)c(C(F)(F)F)c(F)c2)C(=O)N2C[C@@H](C)C[C@H]2C(=O)NC2(CC(C)(C)C2)C(=O)N(C)[C@@H](C(CC)CC)C(=O)N(C)[C@H](C(=O)N(C)C)CC(=O)N1C [PP2490] | 1.7 | AA (a compound having 20 or more is denoted as AA) | 162 | A (a compound having 10 or more and less than 20 is denoted as A) |  |  |  |  |  |
| CCO[C@@H]1C[C@H]2C(=O)NC3(CCC3)C(=O)N(C)[C@@H](C3CCCC3)C(=O)N(C)[C@H](C(=O)N3CCOCC3)CC(=O)N(C)[C@@H](Cc3cccs3)C(=O)N[C@@H]([C@@H](C)CC)C(=O)N(C)CC(=O)N(C)[C@H]3CCCCCN(C3=O)[C@@H](Cc3ccc(F)cc3)C(=O)N(C)CC(=O)N[C@@H](CCc3cc(F)c(C(F)(F)F)c(F)c3)C(=O)N2C1 [PP1183] |  |  |  |  | 0.26 | B (a compound having 3 or more and less than 10 is denoted as B) | 27.8 | B (a compound having 3 or more and less than 10 is denoted as B) |  |
| CCC[C@H]1C(=O)N[C@@H](C2CCCC2)C(=O)N(C)CC(=O)N(C)[C@H]2C/C=C\CCN(C2=O)[C@@H](Cc2ccc(C)cc2)C(=O)N(C)CC(=O)N[C@@H](CCc2ccc(C(F)(F)F)c(Cl)c2)C(=O)N2CC3(CC3)C[C@H]2C(=O)NC2(CCC2)C(=O)N(C)[C@@H]([C@@H](C)CC)C(=O)N(C)[C@H](C(=O)N(C)C)CC(=O)N1C [PP3434] |  | A (a compound having 10 or more and less than 20 is denoted as A) | 26.8 | A (a compound having 10 or more and less than 20 is denoted as A) |  |  |  |  | 0.76 |
| CCO[C@@H]1C[C@H]2C(=O)NC3(CCC3)C(=O)N(C)[C@@H](C3CCCC3)C(=O)N(C)[C@H](C(=O)N(C)C)CC(=O)N(C)[C@@H](CC)C(=O)N[C@@H]([C@@H](C)CC)C(=O)N(C)CC(=O)N(C)[C@H]3CCCCCN(C3=O)[C@@H](Cc3ccc(F)cc3)C(=O)N(C)CC(=O)N[C@@H](CCc3cc(F)c(C(F)(F)F)c(F)c3)C(=O)N2C1 [PP1190] |  |  |  |  | 0.092 | B (a compound having 3 or more and less than 10 is denoted as B) | 15.5 | B (a compound having 3 or more and less than 10 is denoted as B) |  |
| CCO[C@@H]1C[C@H]2C(=O)NC3(CCC3)C(=O)N(C)[C@@H](C3CCCC3)C(=O)N(C)[C@H](C(=O)N(C)C)CC(=O)N(C)[C@@H](CC3CCCC3)C(=O)N[C@@H]([C@@H](C)CC)C(=O)N(C)CC(=O)N(C)[C@H]3C/C=C\CCN(C3=O)[C@@H](Cc3ccc(C(F)(F)F)cc3)C(=O)N(C)CC(=O)N[C@@H](CCc3ccc(Cl)c(Cl)c3)C(=O)N2C1 [PP1254] |  |  |  |  | 0.2 | AA (a compound having 20 or more is denoted as AA) | 28.3 | A (a compound having 10 or more and less than 20 is denoted as A) |  |
